Molecules are shown by their SMILES.

As usually defined, the GI50 is the concentration giving 50% growth inhibition.

One test has as its system SK-MEL-28. Briefly: NCI-60 in vitro tumor cell screen, SK-MEL-28. The test is classed as cell-based. Conditions: Homo sapiens; SK-MEL-28, Melanoma. Here is the method:
(§1) All the synthesized thiazoles 1a–l, 2a–j, 3a–f and 4a–f were evaluated by the National Cancer Institute (Bethesda MD) for cytotoxicity against the NCI-60 cell line panel using standard protocols. Initially, all derivatives were tested at a single dose (10^−5 M) on the full panel of approximately 60 human tumor cell lines derived from 9 human cancer cell types, that have been grouped in disease sub-panels including leukemia, non-small-cell lung, colon, central nervous system (CNS), melanoma, ovarian, renal, prostate and breast cancers (data not shown). Compounds 1k and 4c were further selected for full evaluation at five concentration levels (10^−4–10^−8 M).
(§2) The antitumor activity of compounds 1k and 4c was given by three parameters for each cell line: GI50 (GI50 is the molar concentration of the compound that inhibits 50% net cell growth), TGI (TGI is the molar concentration of the compound leading to total inhibition of net cell growth), and LC50 (LC50 is the molar concentration of the compound that induces 50% net cell death). The average values of mean graph midpoint (MG_MID) were calculated for each of these parameters.

A further test deals with RXF393. Briefly: NCI-60 in vitro tumor cell screen, RXF393. It counts as cell-based. The settings on record: Homo sapiens, RXF 393; RXF393, Renal Cancer. Here is the method:
as §1, §2

A further test concerns MDA-MB-435. Briefly: NCI-60 in vitro tumor cell screen, MDA-MB-435. The test is classed as cell-based. Conditions: Homo sapiens; MDA-MB-435, Melanoma. Here is the method:
as §1, §2

For another test, the system named is UACC-257. Briefly: NCI-60 in vitro tumor cell screen, UACC-257. The test is classed as cell-based. Conditions: Homo sapiens; UACC-257, Melanoma. Here is the method: as §1, §2
A further test has as its system 786-0. Briefly: NCI-60 in vitro tumor cell screen, 786-0. The test is classed as cell-based. The settings on record: Homo sapiens; 786-0, Renal Cancer. Here is the method: as §1, §2
The test system of another test is A549/ATCC. Briefly: NCI-60 in vitro tumor cell screen, A549/ATCC. It counts as cell-based. The settings on record: Homo sapiens, Non-Small Cell Lung Cancer. On the procedure:
as §1, §2

A further test concerns HOP-92. Briefly: NCI-60 in vitro tumor cell screen, HOP-92. The test is classed as cell-based. The settings on record: Homo sapiens; HOP-92, Non-Small Cell Lung Cancer. Here is the method: as §1, §2
The next test concerns NCI/ADR-RES. Briefly: NCI-60 in vitro tumor cell screen, NCI/ADR-RES. The test is classed as cell-based. Conditions: Homo sapiens, Ovarian Cancer. Here is the method:
as §1, §2

For another test, the system named is HCT-116 cells. Kind of test: Acidic vesicular organelles by acridine orange staining (FACS). It counts as cell-based, human. The settings on record: 24 h. Here is the method:
AO is a fluorescent molecule used either to identify apoptotic cell death or autophagy. It can interact with DNA emitting green fluorescence or accumulate in acidic organelles where it is protonated forming aggregates that emit bright red fluorescence. Briefly, cells were stained with a AO solution (5 μg/mL) for 15 min. Then they were washed, re-suspended in PBS and subjected to FACS analysis. The green (510–530 nm, FL-1) and red (650 nm, FL-3) fluorescence of AO with blue (488 nm) excitation was determined over 10,000 events.

A further test has as its system COLO-205. Kind of test: NCI-60 in vitro tumor cell screen, COLO-205. Conditions: Homo sapiens; COLO-205, Colon Cancer. It counts as cell-based. On the procedure:
as §1, §2

The next test has as its system K-562. Briefly: NCI-60 in vitro tumor cell screen, K-562. The test is classed as cell-based. The settings on record: Homo sapiens, K562; K-562, Leukemia. On the procedure:
as §1, §2

A further test has as its system LOX IMVI. Briefly: NCI-60 in vitro tumor cell screen, LOX IMVI. It counts as cell-based. Conditions: Homo sapiens, Melanoma. Here is the method: as §1, §2
Test [1] deals with intestinal normal-like differentiated Caco-2 cells. Briefly: MTT viability assay, differentiated Caco-2 cells, 24 h. The test is classed as cell-based, human. Conditions: range 5 to 100 μM. On the procedure:
Nortopsentin analogues, prepared as described above, were dissolved in dimethyl sulfoxide (DMSO) and then diluted in culture medium to have a DMSO concentration not exceeding 0.1%. HCT-116 and Caco-2 cell lines were purchased from American Type Culture Collection, Rockville, MD, USA and DMEM supplemented with […], […] bovine serum (FBS), penicillin (100 U/mL), streptomycin (100 μg/mL) and gentamicin (5 μg/mL). Cells were maintained in log phase by seeding twice a week at a density of 3 × 10^8 cells/L in humidified 5% CO2 atmosphere, at 37 °C. In all experiments, HCT-116 cells were made quiescent through overnight incubation before treatment with tested compounds or vehicle alone (control cells), while Caco-2 cells were treated 15 days after confluence, at which time the cells are differentiated in normal intestinal-like cells. […]
Cytotoxic activity of the nortopsentin derivatives 1k and 4c was determined by the colorimetric assay based on the reduction of […] (MTT) to purple formazan by mitochondrial dehydrogenases. […] Cells were incubated 2 h at 37 °C, then medium was discarded by centrifugation, formazan blue formed in the cells dissolved in DMSO, and absorbance measured at 570 nm in a microplate reader (Bio-RAD, Hercules, CA, USA). […] GI50 was calculated by the curve of percent viability vs. concentration. […]
Background: Tetrazolium assays rely on reduction of a dye to a coloured formazan, in cell work by metabolically active cells.

Another test has as its system SN12C. Kind of test: NCI-60 in vitro tumor cell screen, SN12C. The settings on record: Homo sapiens, Renal Cancer. It counts as cell-based. On the procedure:
as §1, §2

A further test deals with UO-31. Briefly: NCI-60 in vitro tumor cell screen, UO-31. It counts as cell-based. Conditions: Homo sapiens; UO-31, Renal Cancer. Here is the method:
as §1, §2

A further test relates to PC-3. Briefly: NCI-60 in vitro tumor cell screen, PC-3. It counts as cell-based. Conditions: Homo sapiens; PC-3, Prostate Cancer. On the procedure:
as §1, §2

The test system of a further test is SR. Kind of test: NCI-60 in vitro tumor cell screen, SR. Conditions: Homo sapiens, Leukemia. It counts as cell-based. Here is the method:
as §1, §2

The subject of the next test is MALME-3M. Kind of test: NCI-60 in vitro tumor cell screen, MALME-3M. It counts as cell-based. The settings on record: Homo sapiens, Melanoma. On the procedure: as §1, §2

In the case of `Clc1nccc2c(-c3csc(-c4c[nH]c5ccc(Br)cc45)n3)c[nH]c12` [Compound 4c, 3-[2-(5-Bromo-1H-indol-3-yl)-1,3-thiazol-4-yl]-7-chloro-1H-pyrrolo[2,3-c]pyridine], the 50% growth inhibitory concentration (GI50) in the test with SK-MEL-28 was determined as 1.85 µM; with RXF393, 1.48 µM; in the test on MDA-MB-435, 3.43 µM; in the test with UACC-257, 2.68 µM; in the test with 786-0, 1.37 µM; in the test on A549/ATCC, 3.83 µM. In addition, the GI50 in the test on HOP-92 amounted to 2.43 µM; in the test on NCI/ADR-RES it was 2.71 µM; with COLO-205, 1.8 µM; in the test on K-562 it was 2.73 µM; in the test with LOX IMVI it was 1.63 µM; in the test on SN12C it was 3.35 µM. In addition, the GI50 is 0.93 µM with UO-31, 3.86 µM with PC-3 and 1.27 µM in the test on SR. In the test with HCT-116 cells (concentration GI30, vs control), the “increase of the bright red to green fluorescence intensity ratio of acridine orange” value turned out to be 10 fold. Also, the “percent of cells with AVO with respect to control” value in the test on HCT-116 cells (highest drug concentration) is reported as “did not significantly modify”. For the same compound, in test [1], the “effect on cell viability” value is listed as “did not affect the differentiated Caco-2 cell viability”.

Turning to `Cn1cc(-c2csc(-c3c[nH]c4ncccc34)n2)c2cc(Br)cnc21` [Compound 1k, 5-Bromo-1-methyl-3-[2-(1H-pyrrolo[2,3-b]pyridin-3-yl)-1,3-thiazol-4-yl]-1H-pyrrolo[2,3-b]pyridine], the GI50 in the test with MALME-3M was 3.01 µM; in the test on RXF393, 2.05 µM; in the test on MDA-MB-435, 3.17 µM; with 786-0 it was 9.65 µM; in the test with A549/ATCC, 2.59 µM; with HOP-92, 5.03 µM. The GI50 worked out at 3.88 µM in the test on NCI/ADR-RES, 8.76 µM in the test with K-562, 4.26 µM with LOX IMVI and 4.35 µM in the test on PC-3. Further, the “effect on cell viability” value in [1] was “did not affect the differentiated Caco-2 cell viability”.

(Values after article PMC4306947, “Synthesis and Antiproliferative Activity of Thiazolyl-bis-pyrrolo[2,3-b]pyridines and Indolyl-thiazolyl-pyrrolo[2,3-c]pyridines, Nortopsentin Analogues” (Marine Drugs, 2015).)
